In patent US20230203156A1, “ANTI-MDR1 ANTIBODIES AND USES THEREOF” (KENJOCKETY BIOTECHNOLOGY, INC., priority 2020, published 2023):
Where two headings read alike, the source gives them in different places.

Legend:
N6/ADR cells = experiment: Vincristine cytotoxicity assay on N6/ADR cells (CellTiter-Glo); assay type: cell-based, human; conditions: for IC50: Homo sapiens
Description: (§1) The effect of antibodies on vincristine cytotoxicity was evaluated on N6/ADR, a doxorubicin-selected, ABCB1-positive variant of the human acute lymphoblastic leukemia (ALL) cell line, NALM6. Cells were plated in 0.05 mL of Assay Media (RPMI-1640 +10% FBS) at 5000 cells/well in white flat bottom 96-well tissue culture plates. Vincristine was prepared at 2X final assay concentration by serial dilution from 200 uM in assay media containing test antibodies or control antibodies at 100 ug/mL (2X final concentration), or valspodar, a small molecule KPB1 inhibitor at 7 uM (2X final concentration). An equivalent volume (0.05 mL) of the vincristine/antibody mixture was added to the N6/ADR cells in 96-well plates. The plates were then incubated at 37° C., in 5% CO2. After 72 hr plates were equilibrated to room temperature and cell viability assessed using Promega® CellTiter-Glo® Luminescent Cell Viability Assay according to the manufacturer’s recommended protocol. Luminescence was measured on a Molecular Devices® FlexStation® 3 Multi-Mode Microplate Reader and data analyzed using GraphPad Prism 8.0 software.
as §1, with “Cytotoxicity Assays. The effect” for “The effect”, “a doxorubicin-selected, B1-positive variant of” for “a doxorubicin-selected, ABCB1-positive variant of”, “small molecule B1 inhibitor at” for “small molecule KPB1 inhibitor at”, “8.0 software. Half maximal inhibitory concentration (IC50) is the concentration of drug (vincristine or other chemotherapy cytotoxic agent) where the response (cell growth) is reduced by 50%.” for “8.0 software.”

[1] = system: MES-SA DX5 uterine sarcoma; experiment: MES-SA DX5 drug-resistant uterine sarcoma model in nude mice; assay type: in vivo; conditions: MES-SA DX5 tumors in vivo
Description: Anti-ABCB1 antibodies B1.129, B1.261, B1.223, B1.225, B1.188, B1.28, and B1.226 were tested for effect on growth of tumors in immunodeficient mice. The following cancer cell lines were used for generating tumor models.
MES-SA DX5: The multi drug-resistant cell line MES-SA/Dx5 (Sigma. 95051031) was derived from the human uterine sarcoma cell line MES-SA (Sigma Catalogue number. 95051030) which was originally obtained from a tumour from a person at the time of hysterectomy. […] Cross resistance to bleomycin, cisplatin, carmustine, 5-fluorouracil or methotrexate was not observed.
Nude mice were implanted with MES-SA DX5 cells to model uterine sarcoma. Anti-B1 monoclonal antibodies are efficacious in MES-SA DX5 uterine sarcoma model in nude mice.

[2] = system: human MDR1 extracellular loops 1 and 4 (ECD1, ECD4); experiment: Epitope mapping with mutant human MDR1 expressed on 293T cells (flow cytometry); assay type: binding; conditions: mutant versus WT human ABCB1; preliminary epitope mapping
Text: To determine binding of anti-MDR1 mAbs listed in Table 2 to the two major extracellular loops 1 and 4 of MDR1, various mutations were constructed to alter or substitute these two loops. To examine binding to cynomolgus extracellular loops, the extracellular loop 1 and/or loop 4 of cynomolgus MDR1 were grafted (with a C-terminal FLAG tag) to substitute for the human loops in the human MDR1 using standard techniques. To examine binding dependence on the normal human loops, MDR1 variants with deletion 79-102 and deletion 82-99 in loop 1 were also generated. Loop 1 is also referred to as ECD1. Loop 4 is also referred to as ECD4. These mutant MDR1 efflux pump variants were expressed on 293T cells using standard methods to generate cells that could be used to distinguish binding of various anti-MDR1 mAbs. The different cells were incubated with different anti-MDR1 mAbs for about 1 hour at 4° C. The cells were washed twice with FACS buffer (PBS containing 0.5% BSA). Alexa647 labeled goat anti-human antibody was added as a secondary antibody, and the samples were incubated on ice for another 1 hour. Samples were washed again and analyzed by flow cytometry.
FIG. 9 summarizes the findings from preliminary epitope mapping using mutant human MDR1. […] For example, anti-MDR1 mAb B1.129 requires ECD1 and ECD4 for binding to human MDR1. All of the anti-MDR1 antibodies contact ECD4. […] ECD1 refers to the first extracellular domain of human ABCB1, ECD4 refers to the fourth extracellular domain of human ABCB1 and “others” refers to the remainder of the extracellular domains 2-3 and 5-6 of human ABCB1. Only binding to ECD1 and ECD4 was tested.

human MDR1 = target: T1, human MDR1 (Homo sapiens, UniProt P08183); experiment: Efflux blockade of MDR1 fluorescent substrates (flow cytometry); assay type: cell-based
T1 construct: expressed in transfected cells
Description: HEK 293T cells expressing human MDR1 or MES-SA/DX5 cells expressing human MDR1 were washed several times and aliquoted into 96-well plates as 50 µl aliquots/well at a cell density of 1 x 10e6 cells per ml in phenol red-free DMEM. Cells were mixed with 300 nM to 1 nM antibodies and incubated for 1 h at 37° C. To determine efflux blockade cells were incubated in the presence of B1 fluorescent substrates as follows: 0.6 µM Rhodamine; 5 µM […] (DiOC2(3)) or 0.6 µM Calcein AM for 1.5 h at 37° C. The cells were then washed twice and finally resuspended in […] PBS. Rhodamine, DiOC2(3) or Calcein AM fluorescence were measured by flow cytometry.
Effect of anti-MDR1 antibodies on efflux of MDR1 substrates Calcein, DIOC2, and Rhodamine was assessed as described in efflux blockade experimental procedure.

[3] = system: DX5-B1 KO uterine sarcoma; experiment: Uterine sarcoma formed from MES-SA DX5 cells lacking ABCB1 expression (DX5-B1 KO); assay type: in vivo

Molecule: 15D3: anti-ABCB1 antibody known as 15D3; VH SEQ ID NO:287, VL SEQ ID NO:284 [reference compound]
- potentiation of vincristine mediated cytotoxicity (N6/ADR cells; N6/ADR cells): did not potentiate
- sensitization of MES-SA DX5 uterine sarcoma to paclitaxel [1]: did not sensitize
- ECD1 required for antibody binding to human ABCB1 [2]: do not require
- ECD4 required for antibody binding to human ABCB1 [2]: bind to an epitope that includes ECD4 sequences
- inhibition of efflux of DIOC2 (human MDR1; 293T.hB1 cell line): no observable effect
- inhibition of efflux of Rhodamine (human MDR1; 293T.hB1 cell line): low inhibition
- inhibition of efflux of DIOC2 (human MDR1; MES-SA/Dx5 cells): no observable effect
- inhibition of efflux of Rhodamine (human MDR1; MES-SA/Dx5 cells): no effect

Molecule: MRK16: anti-ABCB1 antibody known as MRK16; VH SEQ ID NO:286, VL SEQ ID NO:283
- potentiation of vincristine mediated cytotoxicity (N6/ADR cells; N6/ADR cells): did not potentiate

Molecule: KPA08: anti-ABCB1 antibody with two heavy chains from 15D3 and two light chains from MRK16 [reference compound]
- ECD1 required for antibody binding to human ABCB1 [2]: do not require
- ECD4 required for antibody binding to human ABCB1 [2]: bind to an epitope that includes ECD4 sequences

Molecule: CC[C@]1(O)C[C@H]2CN(CCc3c([nH]c4ccccc34)[C@@](C(=O)OC)(c3cc4c(cc3OC)N(C=O)[C@H]3[C@@](O)(C(=O)OC)[C@H](OC(C)=O)[C@]5(CC)C=CCN6CC[C@]43[C@@H]65)C2)C1 [Vincristine, vincristine]
- IC50 (N6/ADR cells; 72 h, read-out: IC50 (pM), cytotoxicity to N6/ADR cells by vincristine): 4120 pM
- IC50 (N6/ADR cells; IC50 of vincristine alone or with antibody, N6/ADR cells, 72 hr, read-out: IC50 (nM), vincristine cytotoxicity): 543 pM

Molecule: CC(=O)O[C@H]1C(=O)[C@@]2(C)[C@H]([C@H](OC(=O)c3ccccc3)[C@]3(O)C[C@H](OC(=O)[C@H](O)[C@@H](NC(=O)c4ccccc4)c4ccccc4)C(C)=C1C3(C)C)[C@]1(OC(C)=O)CO[C@@H]1C[C@@H]2O [paclitaxel]
- sensitivity of tumor to paclitaxel [3]: sensitive
